According to patent US8063088B2 (Hoffmann-La Roche Inc., priority 2008, dated 2011):

Key:
human LXR alpha = target: T1, human LXR alpha (Homo sapiens, UniProt Q13133); experiment: Radioligand binding assay (SPA), LXR alpha LBD; conditions: radioligand displacement, LXRα-LBD on SPA beads; read-out: LXRalpha Binding IC50
T1 construct: human LXR alpha (aa 164 to 447); unspecified tag ('tagged versions'); made in house; host or cells: E. coli BL21 (pLysS)
T1 sequence (Q13133 164-447): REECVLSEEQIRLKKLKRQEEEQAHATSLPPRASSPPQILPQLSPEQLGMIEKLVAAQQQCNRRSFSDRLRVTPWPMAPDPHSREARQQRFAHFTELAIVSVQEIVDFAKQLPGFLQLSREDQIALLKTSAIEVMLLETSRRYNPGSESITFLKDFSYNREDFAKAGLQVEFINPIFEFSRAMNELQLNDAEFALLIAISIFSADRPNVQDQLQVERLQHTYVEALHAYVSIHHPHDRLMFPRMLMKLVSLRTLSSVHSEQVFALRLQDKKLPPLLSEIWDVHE
Method: (§1) The following tests were carried out in order to determine the activity of the compounds of the present invention. Background information on the performed assays can be found in: Nichols J S et al. “Development of a scintillation proximity assay for peroxisome proliferator-activated receptor gamma ligand binding domain”, Anal Biochem. 1998, 257: 112-119.
(§2) Mammalian expression vectors were constructed to express full-length human LXR alpha and LXR beta. Bacterial expression vectors were constructed to produce tagged versions of the ligand binding domains (LBD) of human LXR alpha (aa 164 to 447) and human LXR beta (aa 155 to 460). To accomplish this, the portions of the sequences encoding the LBDs were amplified from the full-length clones by PCR and then subcloned into the plasmid vectors. Final clones were verified by DNA sequence analysis (Willy et al., Genes Dev. 1995, 9:1033-45; Song et al., Proc Natl Acad Sci USA. 1994, 91:10809-13).
(§3) Induction, expression, and purification of LBD proteins were performed in E. coli strain BL21 (pLysS) cells by standard methods (Ref: Current Protocols in Molecular Biology, Wiley Press, edited by Ausubel et al).
(§4) Radioligand Binding Assay
(§5) LXR alpha and LXR beta receptor binding were assayed in buffer consisting of 50 mM HEPES, pH 7.4, 10 mM NaCl, 5 mM MgCl2. For each 96-well reaction, 500 ng of LXRα-LBD or 700 ng of LXR beta-LBD proteins were bound to 80 μg or 40 μg SPA beads respectively, in a final volume of 50 μl by shaking. The resulting slurry was incubated for 1 h at RT and centrifuged for 2 min at 1300×g. The supernatant containing unbound protein was removed, and the semi-dry pellet containing the receptor-coated beads was re-suspended in 50 μl of buffer. Radioligand (eg. 100,000 dpm of (N-(2,2,2-trifluoroethyl)-N-[4-(2,2,2-trifluoro-1-hydroxy-1-trifluoromethylethyl)-phenyl]-benzenesulfonamide)) was added, and the reaction incubated at RT for 1 h in the presence of test compounds, and then scintillation proximity counting was performed. All binding assays were performed in 96-well plates and the amount of bound ligand was measured on a Packard TopCount using OptiPlates (Packard). Dose response curves were measured within a range of concentration from 10^−10 M to 10^−4 M.

human LXR beta = target: T2, human LXR beta (Homo sapiens, UniProt P55055); experiment: Radioligand binding assay (SPA), LXR beta LBD; conditions: radioligand displacement, LXR beta-LBD on SPA beads; read-out: LXRbeta Binding IC50
T2 construct: human LXR beta (aa 155 to 460); unspecified tag ('tagged versions'); made in house; host or cells: E. coli BL21 (pLysS)
T2 sequence (P55055 155-460): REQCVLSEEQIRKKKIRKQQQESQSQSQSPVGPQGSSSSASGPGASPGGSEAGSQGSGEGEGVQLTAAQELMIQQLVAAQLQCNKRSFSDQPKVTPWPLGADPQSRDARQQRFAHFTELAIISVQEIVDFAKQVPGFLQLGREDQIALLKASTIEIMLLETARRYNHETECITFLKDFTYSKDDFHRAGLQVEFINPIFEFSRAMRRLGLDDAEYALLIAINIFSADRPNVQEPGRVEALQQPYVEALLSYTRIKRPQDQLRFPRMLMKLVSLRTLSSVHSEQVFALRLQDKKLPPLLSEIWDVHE
Method: as §1, §2, §3, §4, §5

IC50 (human LXR alpha)	IC50 (human LXR beta)	SMILES
1990 nM	315 nM	Cc1ccc(Cl)cc1-c1cccc(C2CN(S(=O)(=O)c3ccccc3)C(=O)N2C(C)C)c1 (stereo not shown) [Example 26, 1-Benzenesulfonyl-4-(5′-chloro-2′-methyl-biphenyl-3-yl)-3-isopropyl-imidazolidin-2-one]
6230 nM	3800 nM	COc1ccc(F)cc1-c1cccc(C2CN(S(=O)(=O)c3ccccc3)C(=O)N2C(C)C)c1 (stereo not shown) [Example 27, 1-Benzenesulfonyl-4-(5′-fluoro-2′-methoxy-biphenyl-3-yl)-3-isopropyl-imidazolidin-2-one]
2960 nM	505 nM	CC(C)N1C(=O)N(S(=O)(=O)c2ccccc2)CC1c1cccc(-c2cc(C#N)ccc2Cl)c1 (stereo not shown) [Example 28, 3′-(1-Benzenesulfonyl-3-isopropyl-2-oxo-imidazolidin-4-yl)-6-chloro-biphenyl-3-carbonitrile]
2250 nM	410 nM	CC(C)N1C(=O)N(S(=O)(=O)c2ccccc2)CC1c1cccc(-c2cccc(S(=O)(=O)NC(C)(C)C)c2)c1 (stereo not shown) [Example 29, 3′-(1-Benzenesulfonyl-3-isopropyl-2-oxo-imidazolidin-4-yl)-biphenyl-3-sulfonic acid tert-butylamide]
95 nM	10.4 nM	CCOc1ccc(F)c(-c2cccc(C3CN(S(=O)(=O)c4ccccc4)C(=O)N3C(C)C)c2)c1 (stereo not shown) [Example 30, 1-Benzenesulfonyl-4-(5′-ethoxy-2′-fluoro-biphenyl-3-yl)-3-isopropyl-imidazolidin-2-one]
815 nM	165 nM	Cc1ccc(C)c(-c2cccc(C3CN(S(=O)(=O)c4ccccc4)C(=O)N3C(C)C)c2)c1 (stereo not shown) [Example 31, 1-Benzenesulfonyl-4-(2′,5′-dimethyl-biphenyl-3-yl)-3-isopropyl-imidazolidin-2-one]
950 nM	99.5 nM	CC(C)N1C(=O)N(S(=O)(=O)c2ccccc2)CC1c1cccc(-c2cc(F)ccc2F)c1 (stereo not shown) [Example 32, 1-Benzenesulfonyl-4-(2′,5′-difluoro-biphenyl-3-yl)-3-isopropyl-imidazolidin-2-one]
52700 nM	530 nM	CS(=O)(=O)c1cccc(-c2cccc(C3CN(S(=O)(=O)c4ccccc4)CC(=O)N3c3ccccc3)c2)c1 (stereo not shown) [Example 33, 4-Benzenesulfonyl-6-(3′-methanesulfonyl-biphenyl-3-yl)-1-phenyl-piperazin-2-one]
56 nM	2 nM	CS(=O)(=O)c1cccc(-c2cccc(C3CN(S(=O)(=O)c4ccccc4)CCN3c3ccccc3)c2)c1 (stereo not shown) [Example 34, 4-Benzenesulfonyl-2-(3′-methanesulfonyl-biphenyl-3-yl)-1-phenyl-piperazine]
2620 nM	425 nM	NCc1cccc(-c2cccc(C3CN(S(=O)(=O)c4ccccc4)CCN3c3ccccc3)c2)c1 (stereo not shown) [Example 35, C-[3′-(4-Benzenesulfonyl-1-phenyl-piperazin-2-yl)-biphenyl-3-yl]-methylamine]
44100 nM	19300 nM	Cc1ccc(C)c(-c2cccc(C3CN(C(=O)OC(C)(C)C)CCC3c3ccccc3)c2)c1 (stereo not drawn) [Example 40, trans-3-(2′,5′-Dimethyl-biphenyl-3-yl)-4-phenyl-piperidine-1-carboxylic add tert-butyl ester]
5530 nM	355 nM	Cc1ccccc1N1CCN(C(=O)OC(C)(C)C)CC1c1cccc(-c2cccc(S(C)(=O)=O)c2)c1 (stereo not shown) [Example 48, 3-(3′-Methanesulfonyl-biphenyl-3-yl)-4-o-tolyl-piperazine-1-carboxylic acid tert-butyl ester]
8880 nM	3750 nM	Cc1ccccc1N1CCN(C(=O)OC(C)(C)C)CC1c1cccc(-c2cncc(S(C)(=O)=O)c2)c1 (stereo not shown) [Example 49, 3-[3-(5-Methanesulfonyl-pyridin-3-yl)-phenyl]-4-o-tolyl-piperazine-1-carboxylic acid tert-butyl ester]
12300 nM	165 nM	Cc1ccccc1N1CCN(S(=O)(=O)c2ccccc2)CC1c1cccc(-c2cccc(S(C)(=O)=O)c2)c1 (stereo not shown) [Example 50, 4-Benzenesulfonyl-2-(3′-methanesulfonyl-biphenyl-3-yl)-1-o-tolyl-piperazine]
